The first test deals with T1, KRas G12C (Homo sapiens, UniProt P01116, C118S/C51S/C80L/G12C).
T1 construct: GDP-loaded K-Ras (1-169) G12C, C51S, C80L, C118S
Briefly: KRas G12C Modification Assay (LCMS detection of covalent adduct). Format: binding. To be noted: 5 μM concentration for 3 hours; LC/MS of intact protein; higher POC = higher degree of modification. The procedure:
A 10 μL aliquot of each protein solution was then transferred to a 384 well microtiter plate. Initial compound stocks were generated at fifty times their desired final assay concentration in DMSO.
Exemplary compounds of Formula (II) were diluted 25-fold into K-Ras Assay Buffer to a final of two times their final concentration. A 10 μL aliquot of each diluted compound solution was then added to each of the protein solutions in the microtiter plate to initiate reaction. […] At each time point, the reactions were quenched with 20 μL of a 25 mM acetic acid solution. […] Once all reactions were quenched, the plates were heat sealed and the samples were injected into a LC/MS system for data acquisition.
Samples were injected in their liquid phase onto a C-3 reverse phase column to remove assay buffer and prepare the samples for mass spectrometer. The proteins were eluted from the column using an acetonitrile gradient and fed directly into the mass analyzer. Initial raw data analysis took place in Agilent MassHunter software immediately post data acquisition.
Raw data analysis of the intact protein was exclusively a deconvolution of the multiple charge states of each protein in solution using a maximum entropy deconvolution provided in Mass Hunter. To minimize complexity, only the data over limited mass ranges were considered for analysis, with a minimum of one Dalton mass step intervals. The heights of all masses identified during raw data analysis were exported to be further analyzed in Spotfire® data analysis software.
Final data analysis was a multistep process in the Spotfire® data analysis software package. Briefly, each protein mass was calculated as a percent of the total signal of that sample, that percentage was then normalized to the percentage of signal of the protein in the absence of reactive compounds. Those normalized signals were reported as normalized percent of control (POC). […] Key: “A”≤25% POC; “B”>25% POC−≤50% POC; “C”>50% POC and ND=not determined.
As to `Cc1cccc2cccc(N3CCc4c(nc(OC[C@@H]5CCCN5C)nc4N4CCN(C(=O)/C=C/CF)[C@@H](CC#N)C4)C3)c12` [Example 35, 2-((S)-1-((E)-4-fluorobut-2-enoyl)-4-(7-(8-methylnaphthalen-1-yl)-2-(((S)-1-methylpyrrolidin-2-yl)methoxy)-5,6,7,8-tetrahydropyrido[3,4-d]pyrimidin-4-yl)piperazin-2-yl)acetonitrile], the “POC (normalized percent of control; degree of covalent modification of KRas G12C)” value is reported as “C (“C”>50% POC)”.

Regarding `CN1CCC[C@H]1COc1nc2c(c(N3CCN(C(=O)/C=C/CN4CC(F)C4)[C@@H](CC#N)C3)n1)CCN(c1cccc3cccc(Cl)c13)C2` [Example 10, 2-[(2S)-4-[7-(8-chloro-1-naphthyl)-2-[[(2S)-1-methylpyrrolidin-2-yl]methoxy]-6,8-dihydro-5H-pyrido[3,4-d]pyrimidin-4-yl]-1-[(E)-4-(3-fluoroazetidin-1-yl)but-2-enoyl]piperazin-2-yl]acetonitrile], the “POC (normalized percent of control; degree of covalent modification of KRas G12C)” value is “C (“C”>50% POC)”. For the molecule `Cc1cccc(N2CCc3c(nc(OC[C@@H]4CCCN4C)nc3N3CCN(C(=O)/C=C/C(F)(F)F)[C@@H](CC#N)C3)C2)c1C` [Example 15, 2-((S)-4-(7-(2,3-dimethylphenyl)-2-(((S)-1-methylpyrrolidin-2-yl)methoxy)-5,6,7,8-tetrahydropyrido[3,4-d]pyrimidin-4-yl)-1-((E)-4,4,4-trifluorobut-2-enoyl)piperazin-2-yl)acetonitrile], the “POC (normalized percent of control; degree of covalent modification of KRas G12C)” value was “C (“C”>50% POC)”. Same read-out and setting: the same measure for `C=C(OC)C(=O)N1CCN(c2nc(OC[C@@H]3CCCN3C)nc3c2CCN(c2cccc4cccc(Cl)c24)C3)C[C@@H]1CC#N` [Example 43, 2-[(2S)-4-[7-(8-chloro-1-naphthyl)-2-[[(2S)-1-methylpyrrolidin-2-yl]methoxy]-6,8-dihydro-5H-pyrido[3,4-d]pyrimidin-4-yl]-1-(2-methoxyprop-2-enoyl)piperazin-2-yl]acetonitrile]: “A (“A”≤25% POC)”; for `CN1CCC[C@H]1COc1nc2c(c(N3CCN(C(=O)C#CCO)[C@@H](CC#N)C3)n1)CCN(c1cccc3ccccc13)C2` [Example 3, 2-((S)-1-(4-hydroxybut-2-ynoyl)-4-(2-(((S)-1-methylpyrrolidin-2-yl)methoxy)-7-(naphthalen-1-yl)-5,6,7,8-tetrahydropyrido[3,4-d]pyrimidin-4-yl)piperazin-2-yl)acetonitrile]: “C (“C”>50% POC)”; for `C=C(C(=O)N1CCN(c2nc(OC[C@@H]3CCCN3C)nc3c2CCN(c2cccc4cccc(Cl)c24)C3)C[C@@H]1CC#N)C(F)(F)F` [Example 33, 2-[(2S)-4-[7-(8-chloro-1-naphthyl)-2-[[(2S)-1-methylpyrrolidin-2-yl]methoxy]-6,8-dihydro-5H-pyrido[3,4-d]pyrimidin-4-yl]-1-[2-(trifluoromethyl)prop-2-enoyl]piperazin-2-yl]acetonitrile]: “C (“C”>50% POC)”. Consider `CN1CCC[C@H]1COc1nc2c(c(N3CCN(C(=O)/C=C/CN4CCC(F)C4)[C@@H](CC#N)C3)n1)CCN(c1cccc3cccc(Cl)c13)C2` (stereo partly drawn) [Example 9, 2-[(2S)-4-[7-(8-chloro-1-naphthyl)-2-[[(2S)-1-methylpyrrolidin-2-yl]methoxy]-6,8-dihydro-5H-pyrido[3,4-d]pyrimidin-4-yl]-1-[(E)-4-(3-fluoropyrrolidin-1-yl)but-2-enoyl]piperazin-2-yl]acetonitrile], for which the “POC (normalized percent of control; degree of covalent modification of KRas G12C)” value was “C (“C”>50% POC)”. Same read-out and setting: then `CN1CCC[C@H]1COc1nc2c(c(N3CCN(C(=O)/C=C/C(F)(F)F)[C@@H](CC#N)C3)n1)CCN(c1cccc3cccc(Cl)c13)C2` [Example 19, 2-((S)-4-(7-(8-chloronaphthalen-1-yl)-2-(((S)-1-methylpyrrolidin-2-yl)methoxy)-5,6,7,8-tetrahydropyrido[3,4-d]pyrimidin-4-yl)-1-((E)-4,4,4-trifluorobut-2-enoyl)piperazin-2-yl)acetonitrile], with “C (“C”>50% POC)”; and `C=C(Cl)C(=O)N1CCN(c2nc(OC[C@@H]3CCCN3C)nc3c2CCN(c2cccc(C)c2C)C3)C[C@@H]1CC#N` [Example 2, 2-[(2S)-1-(2-chloroprop-2-enoyl)-4-[7-(2,3-dimethylphenyl)-2-[[(2S)-1-methylpyrrolidin-2-yl]methoxy]-6,8-dihydro-5H-pyrido[3,4-d]pyrimidin-4-yl]piperazin-2-yl]acetonitrile], with “C (“C”>50% POC)”. For the molecule `CN(C)C/C=C(/F)C(=O)N1CCN(c2nc(OC[C@@H]3CCCN3C)nc3c2CCN(c2cccc4cccc(Cl)c24)C3)C[C@@H]1CC#N` [Example 32, 2-[(2S)-4-[7-(8-chloro-1-naphthyl)-2-[[(2S)-1-methylpyrrolidin-2-yl]methoxy]-6,8-dihydro-5H-pyrido[3,4-d]pyrimidin-4-yl]-1-[(E)-4-(dimethylamino)-2-fluoro-but-2-enoyl]piperazin-2-yl]acetonitrile], the “POC (normalized percent of control; degree of covalent modification of KRas G12C)” value is “C (“C”>50% POC)”.

As for `Cc1cccc2cccc(N3CCc4c(nc(OC[C@@H]5CCCN5C)nc4N4CCN(C(=O)/C=C/C(F)F)[C@@H](CC#N)C4)C3)c12` [Example 24, 2-((S)-1-((E)-4,4-difluorobut-2-enoyl)-4-(7-(8-methylnaphthalen-1-yl)-2-(((S)-1-methylpyrrolidin-2-yl)methoxy)-5,6,7,8-tetrahydropyrido[3,4-d]pyrimidin-4-yl)piperazin-2-yl)acetonitrile], the “POC (normalized percent of control; degree of covalent modification of KRas G12C)” value is listed as “C (“C”>50% POC)”.

As for `C=C(CO)C(=O)N1CCN(c2nc(OC[C@@H]3CCCN3C)nc3c2CCN(c2cccc(C)c2C)C3)C[C@@H]1CC#N` [Example 17, 2-((S)-4-(7-(2,3-dimethylphenyl)-2-(((S)-1-methylpyrrolidin-2-yl)methoxy)-5,6,7,8-tetrahydropyrido[3,4-d]pyrimidin-4-yl)-1-(2-(hydroxymethyl)acryloyl)piperazin-2-yl)acetonitrile], the “POC (normalized percent of control; degree of covalent modification of KRas G12C)” value is given as “B (“B”>25% POC−≤50% POC)”. With `COC/C=C/C(=O)N1CCN(c2nc(OC[C@@H]3CCCN3C)nc3c2CCN(c2cccc4cccc(Cl)c24)C3)C[C@@H]1CC#N` [Example 53, 2-((S)-4-(7-(8-chloronaphthalen-1-yl)-2-(((S)-1-methylpyrrolidin-2-yl)methoxy)-5,6,7,8-tetrahydropyrido[3,4-d]pyrimidin-4-yl)-1-((E)-4-methoxybut-2-enoyl)piperazin-2-yl)acetonitrile], the “POC (normalized percent of control; degree of covalent modification of KRas G12C)” value is “C (“C”>50% POC)”.

Another test addresses KRas G12C (Homo sapiens, UniProt P01116, G12C). Briefly: Inhibition of KRas G12C in NCI-H358 cells measured by phosphorylated ERK (Phospho-ERK). To be noted: 3 hours, 4 parameter fit, read-out: IC50 (pERK(Thr202/Tyr204) signal normalized with GAPDH). Format: cell-based. The method, then: Cells were plated in poly-D-Lysine coated 96-well plates at a concentration of 50,000 cells/well and allowed to attach for 8-12 hours. Diluted compounds were then added at a final concentration of 0.5% DMSO. After 3 hours, the medium was removed, 150 μL of 4% formaldehyde was added and the plates were incubated for 20 minutes. The plates were washed with PBS, and permeabilized using 150 μL of ice cold 100% methanol for 10 minutes. Non-specific antibody binding to the plates was blocked using 100 μL Licor Blocking Buffer (Li-Cor Biotechnology, Lincoln Nebr.) for 1 hour at room temperature. Positive control samples and samples lacking cells were parallel processed with test samples as standards.
The amount Phospho-ERK was determined using an antibody specific for the phosphorylated form of ERK and compared to the amount of GAPDH. […] The plates were incubated for 2 hours at room temperature. The plates were washed with PBS+0.05% Tween 20.
Secondary antibodies used to visualize primary antibodies were added as follows: Anti-rabbit-680 diluted 1:1000 and Anti-mouse-800 diluted 1:1000 in Licor Block+0.05% Tween 20 and incubated for 1 hour at room temperature. The plates were washed with PBS+0.05% Tween 20. A 100 μL aliquot of PBS was added to each well and the plates were read on a LICOR AERIUS plate reader.
The pERK(Thr202/Tyr204) signal was normalized with the GAPDH signal and percent of DMSO control values were calculated. IC50 values were generated using a 4 parameter fit of the dose response curve.
As to `C=C(F)C(=O)N1CCN(c2nc(OCCCN3C[C@@H]4C[C@H]3CO4)nc3c2CCN(c2cccc4ccc(F)c(Cl)c24)C3)C[C@@H]1CC#N` [Example 198], the IC50 was 0.1 to 1000 nM.

With `C=C(F)C(=O)N1CCN(c2nc(OC3CCN(C4CCOCC4)CC3)nc3c2CCN(c2cccc4cccc(Cl)c24)C3)C[C@@H]1CC#N` [Example 130, (S)-2-(4-(7-(8-chloronaphthalen-1-yl)-2-((1-(tetrahydro-2H-pyran-4-yl)piperidin-4-yl)oxy)-5,6,7,8-tetrahydropyrido[3,4-d]pyrimidin-4-yl)-1-(2-fluoroacryloyl)piperazin-2-yl)acetonitrile], the IC50 was in the range of 1000 to 10000 nM. Still for that read-out and setting: the same measure for `C=C(F)C(=O)N1CCN(c2nc(OCC3CCN3C(C)C)nc3c2CCN(c2cccc4ccc(F)c(Cl)c24)C3)C[C@@H]1CC#N` (some centres unmarked) [Example 178]: 0.1 to 1000 nM; for `C=C(F)C(=O)N1CCN(c2nc(OCC34CCC(CC3)N4C)nc3c2CCN(c2cccc4ccc(F)c(Cl)c24)C3)C[C@@H]1CC#N` [Example 171]: 0.1 to 1000 nM.
